In one series the test system is E. coli NDM-1. The settings on record: 75 μM, 10 min. The procedure: (§1) In parallel, a control set was incubated without compounds for 50 min, followed by incubation with 75 μM meropenem trihydrate for 10 min. Cells were then pelleted, washed, resuspended in water, lysed, and clarified before LC-MS analysis.
(§2) 1.12 LC-MS accumulation assay
(§3) 1.12.1 Bacterial Strains and Growth Conditions:
(§4) Accumulation assay was performed two E. coli K-12 MG1655 strains transfected with pSU18 vector containing NDM-1 expression or an empty vector control. Cell growth was performed in Luria-Bertani (LB) broth (NaCl 10g/L, K2HPO4 6.3 g/L, KH2PO4 1.8 g/L, sodium citrate […]
(§5) 1.12.2 Preparation of Accumulation Assay Samples for LC-MS Analysis:
(§6) Assay was adapted from the work of Geddes et al. and Widya et al.9–11 E. coli MG1655 pSU18 NDM-1 and pSU18 Empty were grown from single colonies at 37 °C with aeration, while shaking at 180 rpm for 18 hours. The overnight suspensions were subcultured (1:100) in fresh LB and incubated to yield an OD600 of 0.55-0.60. The were harvested and pelleted at 3500 × g for 15 minutes at 4 °C. The pellets were washed with Meuller -Hinton II (MHII) broth and pelleted again under the same conditions. The pellets were resuspended in a n adjusted volume of fresh MHII to achieve an OD 600 ≈ 10.0. Shielded from ambient light, cells were incubated with 320 μM of metal complex for 1 hour while shaking at 180 rpm. Separately, another set of cells was incubated under identical conditions without any added metal complex. Cells […]
(§7) incubated with metal complex were maintained incubating under the same conditions for an additional 10 minutes, while the second set of cells was incubated with 75 μM of meropenem trihydrate for 10 minutes. After treatment, 10 μL of each cell suspension was taken and dilution 1:10 PBSA for OD600 viability analysis. A 150 μL aliquot of each cell suspension was layered onto 150 μL of cold silicone oil mixture (1:9, v/v AR20:High temperature silicone oil) and centrifuged at 3500 × g for 1 hour at 4 °C. The aqu eous and oil supernatant were carefully aspirated to isolate the cell pellets, which were resuspended in 50 μL of water and transferred to a fresh microplate. For lysis, a 1:1 (v/v) mixture of acetonitrile and methanol was added to each sample, and the sam ples were freeze thawed at -80 °C for approximately 18 hours.
(§8) Thawed samples were clarified by two rounds of centrifugation at 3500 × g for 1 hour at 4 °C, […]
(§9) External calibration curves were prepared by mixing compound at increasing concentration with extracted cell lysate (prepared in parallel to analyte containing samples) in concentrations […]
(§10) nM were also prepared to assess quantitative accuracy. Samples were submitted to LCMS analysis as biological triplicate using a single calibration curve. […]
(§11) was spiked into each calibration and analyte sampl e as an internal standard.

A further series has as its system E. coli empty. The settings on record: 75 μM, 10 min. On the procedure: as §1, §2, §3, §4, §5, §6, §7, §8, §9, §10, §11
The test system of another series is RAW264.7. The settings on record: RAW.
For series [1] the following is noted: organic photosensitizers; cited from earlier work.

Where two headings read alike, the source gives them in different places.

As to `C[C@@H](O)[C@H]1C(=O)N2C(C(=O)O)=C(S[C@@H]3CN[C@H](C(=O)N(C)C)C3)[C@H](C)[C@H]12` [Meropenem, meropenem], the Accumulation result with E. coli NDM-1 is recorded as “not detectable”; in the series with E. coli empty, 150 nM/OD600; in the series with E. coli empty (listed as meropenem trihydrate), 0 nM/OD600.
In the case of `CN[C@@H]1C[C@H]2O[C@@](C)([C@@H]1OC)n1c3ccccc3c3c4c(c5c6ccccc6n2c5c31)C(=O)NC4` [Staurosporine], the LD50 in the series on HeLa (24 h) was determined as 0.05 µM; in the series on HeLa (48 h) it was 0.02 µM; in the series on RAW264.7 (24 h) it was 0.03 µM; in the series on RAW264.7 (48 h), 0.01 µM; in the series with HEK293T (24 h) it was 0.07 µM; in the series on HEK293T (48 h) it was 0.01 µM. Besides, the LD50 with HaCaT (24 h) stood at 0.05 µM; in the series with HaCaT (48 h), 0.01 µM; with HCT116 (HCT116, 24 h), 0.08 µM; with HCT116 (HCT116, 48 h), 0.02 µM; in the series on HepG2 (HepG2, 24 h), 0.3 µM; in the series on HepG2 (HepG2, 48 h), 0.09 µM. In addition, the LD50 with hTERT RPE-1 (RPE1, 24 h) came out at 0.01 µM; in the series on hTERT RPE-1 (RPE1, 48 h), 0.01 µM.
For the compound `C=CC1=C(C)c2cc3[nH]c(cc4nc(cc5[nH]c(cc1n2)c(C)c5CCC(=O)O)C(CCC(=O)O)=C4C)c(C)c3C=C` [protoporphyrin IX], in series [1], the Excited state lifetime was 13 ns.
Consider porfimer sodium, for which the Excited state lifetime in [1] was 14 ns.

Source of the values: PMC12703741, “Light-Activated Metal-Dependent Protein Degradation: A Heterobifunctional Ruthenium(II) Photosensitizer Targeting New Delhi Metallo-β-lactamase 1” (Journal of the American Chemical Society, 2025).
